Test results from US20090192101A1, “CANCER-SPECIFIC PROMOTERS” (priority 2006, published 2009).

Legend:
[1] = test system: normal and other cancer cell lines; experiment: Transient luciferase assay of promoter activity (electroporation, 24 hrs); format: cell-based, human; settings: 2 μg vector
Description: (§1) Cells (1×10^6) were transfected with 2 μg pGl3-FASN-luciferase vector, as well as 0.2 μg pRL-TK as internal standards by electroporation. The luciferase activity was measured after 24 hrs.
(§2) In FIG. 2, the promoter activities of tight junction protein Claudin 4 in human normal and cancer cells is shown. Cells (1×10^6) were transfected with 2 μg pGl3-claudin 4 luciferase vector, as well as 0.2 μg pRL-TK as internal standards by electroporation. The luciferase activity was measured after 24 hrs.
(§3) Cells (1×10^6) were transfected with 2 μg VISA-claudin 4 or VISA-fatty acid synthase promoter vector, as well as 0.2 μg pRL-TK as internal standards by electroporation. The luciferase activity was measured after 24 hrs.
(§4) 1×10^6 cells were transfected with 2 μg pGl3-FASN-luciferase vector, as well as 0.2 μg pRL-TK as internal standards by electroporation. The luciferase activity was measured after 24 hrs. […]
(§5) Expression of claudin 4 promoter was ascertained in breast cancer cell lines, normal cell lines, and other cancer cell lines by transient luciferase assay. […] The luciferase activity was measured after 24 hrs. […]
(§6) 1×10^6 cells were transfected with 2 μg pGL3-VISA-Claudin4-Luc or pGL3-VISA-FASN-Luc plasmid, as well as 0.2 μg pRL-TK as internal standards by electroporation. The luciferase activities were measured 24 hrs after transient transfection. […]

breast cancer cell lines = experiment: as above; format: cell-based, human; settings: breast cancer cell lines such as T47D, MDA-MB-435, 2 μg vector
Description: as §1, §2, §3, §4, §5, §6

[2] = test system: human normal and cancer cells; experiment: Transient luciferase assay, promoter activity compared to CMV promoter; format: cell-based; settings: electroporation, 24 hrs
Description: The activities of claudin 4 and fatty acid synthase promoters were compared to CMV promoter. […] 1×10^6 cells were transfected with 2 μg pGl3-claudin 4 luciferase vector, as well as 0.2 μg pRL-TK as internal standards by electroporation. The luciferase activity was measured after 24 hrs. The activities of claudin 4 and fatty acid synthase promoters were much weaker than that of CMV promoter, and were about 0.5% and 5% of CMV expression activity, respectively.

## FASN promoter: fatty acid synthase promoter driving luciferase in pGl3 vector
[1]
  promoter expression (luciferase) in normal and other cancer cell lines: low
Breast cancer cell lines
  promoter activity (luciferase) in breast cancer cell lines: highly expressed
[2]
  promoter activity as % of CMV expression activity: ~5%
